A short description of data set [1]: Critical micelle concentration estimated from light scattering intensity and particle size. The format is physicochemical. More on the design: critical micell concentration (CMC): unit not given here. The protocol: FIG. 1. PFPE amide 1 emulsified with Pluronic™ F68 by sonication in 1×HBSS buffer. Emulsion was diluted in 1×HBSS and particle size measured by Dynamic Light Scattering (DLS). Data represents average of two independent measurements, (mean±SD). Critical micelle concentration (CMC) of PFPE amide 1 is 22.2 mg/mL, in presence of 21.6 mol % F68 and 1×HBSS buffer, was estimated from the intersection of the graph of two curves. Measurements performed on Zetasizer Nano (Malvern, UK).
Pluronic™ F68 was dissolved in aqueous buffer (HBSS, Hyclone) at 150 mg/mL. PFPE amide 1 was added at 152 mg/mL, and the mixture (250 μL) was placed in an 1.5 mL Eppendorf vial and sonicated (at 20 W and 20 kHz) at room temperature for 30 seconds. The emulsion was then diluted 1:3 in 1×HBSS and the particle size was measured by dynamic light scattering in Malvern Zetasizer Nano within 1 h. The molar ratio of PFPE amide 1 to F68 was 4.6:1. The polydispersity (PDI) was 0.12 to 0.19 and the average particle size 200 nm. The critical micellar concentrations (CMC) for the PFPE amide 1 and F68 was estimated by plotting the light scattering intensity and average diameter and looking for the curve intersection, as shown in FIG. 1.

Data set [2] has as its system dendritic cells. Description: PFPE uptake in dendritic cells measured by 19F NMR. In kind it is cell-based, mouse. Particulars: 3 h incubation. On the procedure:
(§1) Labeling mouse dendritic cells was performed according to published methods with minor modifications^35. Dendritic cells were plated in 6-well plates, 1−2×10^6/well, and allowed to attach overnight. A PFPE diethyl amide 1/L35 emulsion was mixed with 0.3 mL of serum free media, incubated for 30 min at room temperature, and then added to the cells. After a 3 h incubation at 37° C., the cell labeling medium was removed and cells were washed three times with 1×PBS, detached by trypsinization, washed, and resuspended in 0.5 mL of complete media containing 10% FBS. A portion of the cell suspension (1/10) was used for cell number estimates by Cell Titer Glo. The cells were pelleted\ and resuspended in 0.1 mL of media for ^19F NMR measurements to assess the cell loading.
When dendritic cells were used, the cell suspension (0.1 mL) was mixed with 100 ul of 1% TFA solution in glycerol as a calibrated ^19F reference. The two solutions were mixed well and transferred into a 5 mm NMR tube. Cell uptake was calculated from the relative areas under the peak at −91.5 ppm (PFPE main peak) and the TFA internal standard peak at −76 ppm. Cellular uptake (i.e., the parameter Fc) was calculated as the mean number of fluorine atoms per single viable cell.

Data set [3] concerns dendritic cells. As to the kind of experiment: Cell number and viability of labeled dendritic cells by Cell Titer Glo. Particulars: after labeling. In kind it is cell-based, mouse. On the procedure:
In the examples given below, cellular number was estimated using the commercial assay Cell Titer Glo (Promega). The assay implementation is easy and highly reproducible. A correlation curve was constructed for each labeling experiment at the day of experiment using the same cell culture. When testing the viability post-labeling, a small sample (50 μL) was taken from labeled cell suspension and mixed with Cell Titer Glo reagent in triplicate. Luminescence was measured within 10 minutes and the viable cell number was estimated from a linear correlation curve prepared on the day of experiment.
as §1

As for “Perfluoropolyether diethyl amide [PFPE amide 1]”, in data set [1] (1×HBSS), the “critical micelle concentration (CMC)” value is 22.2 mg/mL.
With “Perfluoropolyether tyramide [PFPE tyramide 6]”, the “uptake in DCs by 19F NMR (in words)” value with dendritic cells [2] is “comparable to the cell labeling experiments that were facilitated with protamine sulfate”. For the same substance, in data set [1] (PFPE-tyramide 6/F68 24:1, thin film method, water), the “critical micell concentration (CMC)” value is reported as 4.5. In addition, the “cell viability / toxicity in DCs (in words)” value with dendritic cells [3] is reported as “non-toxic over various doses”.

The values are drawn from patent US8227610B2, “Compositions and methods for producing cellular labels for nuclear magnetic resonance techniques” (Carnegie Mellon University, priority 2007, dated 2012).
